Data published in patent US20050175696A1, “Drug granule coatings that impart smear resistance during mechanical compression” (priority 2003, published 2005).
Values after ≈ are worked out from the molar mass of the structure shown.

Experiment: Equilibrium solubility of topiramate in de-ionized water and in aqueous surfactant solutions
Type: physicochemical
Method: The resulting solution saturated with the pharmaceutical agent is then filtered, typically under pressure through a 0.8-micron Millipore filter, and the concentration of the pharmaceutical agent in the solution is measured by any appropriate analytical method including gravimetric, ultraviolet spectrophometry, chromatography, and the like. The solubility of the pharmaceutical agent is measured at equilibrium.
A drug composition of the present invention was prepared as follows. Aqueous solutions of five surfactants were prepared. The selected surfactants were four grades of ethylene oxide/propylene oxide/ethylene oxide (LUTROL grades F127, F87, F 108, and F68) and PEG-40 stearate (MYRJ 52). Solutions were made at concentrations of 1, 5, and 15 weight percent. The aqueous surfactant blends solutions were chilled as necessary to promote complete dissolution of the surfactant prior to drug solubility studies.
The aqueous surfactant solutions were equilibrated to constant temperature in a 37° C. water bath. Then, neat topiramate drug was added slowly with stirring in about 10 mg increments to the surfactant solutions until no more drug dissolved. […] The resulting saturated solutions of drug were filtered through 0.8 micron filters and analyzed for drug concentration by refractive index chromatography. […]

With `CC1(C)O[C@@H]2[C@@H](CO[C@@]3(COS(N)(=O)=O)OC(C)(C)O[C@@H]23)O1` [topiramate] the solubility (37 °C, thermodynamic from solid, de-ionized water, no temperature printed at the place, read-out: Solubility of neat topiramate in de-ionized water) was roughly 12 mg/mL (≈ 35.4 mM) and the “Topiramate solubility in water in the presence of surfactant, compared to control without surfactant” value (LUTROL F127, F87, F108, F68 and MYRJ 52 solutions at 1, 5 and 15 weight percent, 37° C.) was “increased by each surfactant”.
